Test results reported in patent US11491105B2, “Methods of treating microbial infections, including mastitis” (priority 2013, dated 2022).
≈ marks a conversion by molar mass, not a printed value.

Assays:
[1] = system: Staphylococcus isolates (methicillin-sensitive and methicillin-resistant); test: Minimum inhibitory concentration assay (Example 1); type: cell-based; conditions: for MIC50 and MIC90 values compared with ampicillin: methicillin-resistant isolates
Method: Forty-two isolates of Staphylococcus of varying species and strain type were collected from isolate collections. Biochemical testing including coagulase, latex agglutination testing for protein A, Vogues-Proskauer tests and resistance to polymyxin B were used to identify the species of Staphylococcus. All isolates were also screened for resistance to various antimicrobials commonly used for the treatment of infections. This was performed using the disk diffusion method and resistance standards as outlined by the CLSI. The following antimicrobials were used: amoxicillin-clavulanic acid (30 μg), cephalothin (30 μg), clindamycin (2 μg), enrofloxacin (5 μg), erythromycin (15 μg), gentamicin (10 μg), imipenem (10 μg), oxacillin (1 μg), penicillin G (10 units), tetracycline (30 μg), 1:19 trimethoprim-sulfamethoxazole (25 μg) and vancomycin (30 μg).
Minimum inhibitory concentration tests were performed according to CLSI Standards (CLSI 2012). 90 μL of one of the test compound solutions, or ampicillin, was added to the end column of a 96 well plate that contained 90 μL of CAMHB in each well. The solutions were then serially diluted across the row, leaving 2 columns for positive and negative controls (FIG. 2). A bacterial suspension was prepared by adding fresh colonies obtained from an overnight culture on Sheep Blood Agar (SBA) to a 9.1 g/L saline solution. This suspension was adjusted to a concentration of between 4×10^8 and 5×10^8 CFU/mL. Concentration of the suspension was determined by measuring optical density (OD) using a spectrophotometer at a wavelength of 600 nm where the correct concentration was determined to have an optical density of between 1.00 and 1.20. 1 mL of this suspension was added to 9 mL of saline before being added to all wells, excluding the negative control wells, in 10 μL volumes giving a final concentration of between 4×10^5 and 5×10^5 CFU/mL in each well. The tests were then incubated for 24 hours at 37° C. and then assessed both visually and using OD readings from a microplate reader at a wavelength of 600 nm. These tests were performed in duplicate but repeated if discrepancies were observed.
The minimum inhibitory concentration (MIC) was determined to be the lowest concentration of antibiotic that prevented growth of bacteria both visually and using OD readings. Direct statistical comparisons between the test compounds and ampicillin could not be performed in light of confidential information restrictions, such as restrictions on disclosure of information relating to the compound structure, such as molecular weight. Instead, MIC values were collated and used to determine the lowest concentration of each compound that was effective against 50% and 90% of isolates, referred to as the MIC50 and MIC90 respectively. These values as well as the range of MIC values were then used for direct comparisons between test compounds and for general comparisons with ampicillin.

[2] = system: bovine mastitis isolates; test: Minimum inhibitory concentration assay (Example 3); type: cell-based
Description: Fifty-one dairy bovine mastitis isolates, encompassing a variety of bacterial species, were isolated from milk samples collected from dairy farms in rural South Australia by the University of Adelaide Ambulatory Clinic. Cellular morphology observed from Gram stains and catalase testing was used to differentiate Staphylococcus, Streptococcus and Corynebacterium species from Gram-negative species. Further biochemical testing including coagulase, Lancefield grouping, esculin hydrolysis and CAMP tests were used to identify the isolates to species level. Where biochemical test results were not definitive in identifying species, amplification and sequencing of the 16S ribosomal RNA gene was used to confirm the identity of the isolates.
Minimum inhibitory concentration tests were performed in the manner outlined by the CLSI (CLSI 2012). Test compounds were dispensed into a 96-well microtitre tray containing 90 μl of CAMHB in 90 μl volumes and serial diluted to obtain a concentration gradient ranging from 128 μg/ml to 0.25 μg/ml (see FIG. 24). For Streptococcus species, CAMHB was replaced with a CAMHB supplement with 4% lysed-sheep blood (4% LSB:CAMHB). 4% LSB:CAMHB was prepared by mixing 5 ml sheep blood to 5 ml milliQ water, and repeated freezing at −20° C. and thawing, followed by centrifuged for 20 min at 7000 rpm. 7 ml of the supernatant was removed and added to 93 mL of CAMB.
Bacterial suspensions were prepared by emulsifying fresh colonies obtained from an overnight culture on Sheep Blood Agar (SBA) in 4 mls of 9.1 g/l physiological saline to an optical density read at 600 nm (OD600nm) between 1.00 and 1.20. Standardised bacterial suspensions were diluted 1:10 in physiological saline and dispensed into all wells, excluding the negative control wells, in 10 μL volumes giving a final concentration of between 4×10^5 and 5×10^5 CFU/mL in each well. 96-well microtitre trays were incubated for 24 hours at 37° C. in 5% CO2 and then assessed both visually and using OD readings from a microplate reader at a wavelength of 600 nm. These tests were performed in duplicate and repeated if discrepancies in MIC values were observed between replicates.
The minimum inhibitory concentration (MIC) was determined to be the lowest concentration of antibiotic that prevented growth of bacteria both visually and using OD readings. MIC values were collated and used to determine the lowest concentration of each compound effective against 50% and 90% of isolates, known as the MIC50 and MIC90 respectively. These values as well as the range of MIC values were then used for direct comparisons between test compounds and for general comparisons with ampicillin.

[3] = Dilution in Cation Adjusted Mueller Hinton Broth; type: physicochemical
Method: For each of the five test compounds, a […] stock solution was created by dissolving 2.56 grams of compound in 10 ml of dimethyl sulfoxide (DMSO). The resulting solution was then aliquoted into 500 μL volumes and stored at −80° C. A […] stock solution of ampicillin was also created by dissolving 0.303 grams of ampicillin (Sigma A-0166) in 10 ml of DMSO. This solution was aliquoted and stored in the same manner as the five test compounds. When these compounds were required, a 256 μg/ml working solution was created by diluting 100 μl of stock solution (25.6 mg/ml) in 9.9 ml of Cation-Adjusted Mueller Hinton Broth (CAMHB)
LP4525 had the most consistent MIC values for all isolates, and this is evidenced by the small MIC range. LP4525 also has a lower MIC90 value compared to all compounds.

[4] = system: MRSA 9; test: Microdilution time-kill assay; type: cell-based, Staphylococcus aureus; conditions: 48 hours
Method: Following assessment of MIC and MBC results, two compounds were chosen for analysis using microdilution time-kill assays, LP 1369 and LP 6315 and these were compared to ampicillin. Time-kill assays were performed according to the M26-A guidelines of the CLSI, with modifications. The test compounds and ampicillin were serial diluted in CAMHB across the rows of a 96 well plate and a bacterial suspension was prepared and added in the same manner as the MIC testing. […] The time points assessed were 0, 1, 2, 4, 8, 12, 24 and 48 hours after the addition of the bacterial suspension to the wells. Each test compound was tested in triplicate while ampicillin was tested in duplicate and this test was independently repeated. The bacterial strains used for the microdilution assays were chosen based on bactericidal activity evident during MBC testing. One strain from each of the categories of Staphylococcus in the isolate collection (methicillin-sensitive, methicillin resistant and coagulase negative) were selected as well as the ATCC reference strain for comparison. These strains were strains MSS 1, MSS 11, MRSA 9 and the ATCC 49775 reference strain.

[5] = system: ATCC 49775 reference strain; test: Macrodilution time-kill assay; type: cell-based, Staphylococcus; conditions: 24 hours
Method: (§1) Due to the detection limit of the OD measurements, the time-kill assays were also performed in macrodilution. In 15 mL tubes, 9 mL volumes of the test compounds in CAMHB were prepared at one, four and eight times the MIC concentration and 9 mL volumes of ampicillin were prepared in CAMHB at one and four times the MIC. 1 mL of a 4 to 5×10^6 bacterial suspension (as prepared for MIC testing) was added to each of the tubes as well as a growth control tube containing only 9 mL of CAMHB. These tubes were incubated at 37° C. in an orbital shaker rotating at 100 rpm for 24 hours. At 0, 1, 4, 8, 12 and 24 hours after addition of the bacteria, 100 μL samples were removed from each tube and serial diluted in 9.1 g/L saline solution. The dilutions were then plated in duplicate onto plate count agar and incubated for 24 hours at 37° C. After incubation, viable counts were obtained from the number of colonies visible on the agar and these were used to calculate the number of CFU/mL at each time point. For the macrodilution time-kill analysis, only the ATCC 49775 reference strain and MRSA 9 were assessed in order to further investigate the antibacterial activity against methicillin-resistant strains. These macrodilution time-kill assays were independently repeated and bactericidal activity was defined as a ≥3 log decrease in the number of CFU/mL.

[6] = system: MRSA 9; test: Macrodilution time-kill assay; type: cell-based, Staphylococcus aureus; conditions: 24 hours
Method: as §1

[7] = system: Staphylococcus isolates (methicillin-sensitive and methicillin-resistant); test: Minimum bactericidal concentration determination (Example 1); type: cell-based; conditions: for bactericidal activity (MBC testing): methicillin-sensitive and methicillin-resistant strains
Method: Following determination of the MIC using the 96 well MIC plate, a variation of the drop plate method was used to determine minimum bactericidal concentration (MBC) for each of the test compounds. These were analysed using samples taken from the MIC plate following incubation. For each compound, a 10 μL drop of each concentration equal to or higher than the MIC was pipetted onto Sheep Blood Agar in a clockwise manner (FIG. 3). Each concentration was pipetted in duplicate with duplicates being pipetted on an inner ring of drops. The plates were incubated at 37° C. overnight and assessed the following day for growth. The MBC was defined as the concentration at which 99.9% of colonies were eradicated, which was visually assessed by a lack of growth on the agar where the drop was placed. […] The MBC values for 50% and 90% of the isolates (MBC50 and MBC90) were calculated and assessed along with the MBC range in order to select compounds for further study.

[8] = dogs; cited from earlier work
[9] = humans; cited from earlier work
[10] = accidental inhalation and swallowing of about 1 mg/kg, human; cited from earlier work
[11] = 51 Australian bovine mastitis isolates

Compound	MIC90 value and MIC range (in words) ([1]; all strains)	MIC50 and MIC90 values compared with ampicillin [1]	antibacterial activity against the bovine mastitis isolates [2]	MIC90 [2, 11] [µg/mL]	MIC90 values for each of the groups of mastitis pathogens (in words) ([2]; compared with the other compounds)	turbidity or precipitate upon dilution [3]	resulting growth after 48 hours [4]	bactericidal or bacteriostatic (>=3 log decrease in CFU/mL = bactericidal) ([5]; LP 6315: most concentrations)	decrease in the number of viable bacteria ([5]; all concentrations tested) [log10]	bactericidal or bacteriostatic (>=3 log decrease in CFU/mL = bactericidal) ([6]; LP 6315: most concentrations)	decrease in the number of viable bacteria ([6]; all concentrations tested) [log10]	strains against which bactericidal activity was exhibited more consistently [7]	bactericidal activity (MBC testing) [7]	MIC values (in words) [2]	daily intake that leads to neurotoxic effects (myelin loss, axonal degeneration) [8]	acceptable daily intake (ADI) [9] [µg/kg]	toxicity after accidental exposure [10]	MIC50 [2, 11] [µg/mL]
CC[C@@]1([C@@H]2O[C@@H]([C@H]3O[C@@](O)(CO)[C@H](C)C[C@@H]3C)C[C@@H]2C)CC[C@H]([C@]2(C)CC[C@]3(C[C@H](O)[C@@H](C)[C@@H]([C@@H](C)[C@@H](OC)[C@H](C)C(=O)O)O3)O2)O1 [LP 9666, Monensin]	high MIC90 value and broad MIC range	considerably lower than ampicillin	observed	128 (≈ 191 µM)	significantly higher	large amount of precipitate	–	–	–	–	–	–	–	–	–	–	–	–
CC1(C)S[C@@H]2[C@H](NC(=O)[C@H](N)c3ccccc3)C(=O)N2[C@H]1C(=O)O [ampicillin]	–	–	–	–	–	–	comparable to the growth control	bactericidal	> 3	bactericidal	> 3	–	–	–	–	–	–	–
CC[C@@H](C(=O)[C@@H](C)[C@@H](O)[C@H](C)[C@@H]1O[C@@H]([C@@H](CC)C(=O)O)CC[C@@H]1C)[C@H]1O[C@]2(C=C[C@@H](O)[C@]3(CC[C@@](C)([C@H]4CC[C@](O)(CC)[C@H](C)O4)O3)O2)[C@H](C)C[C@@H]1C [LP 1088, Salinomycin]	–	considerably lower than ampicillin	observed	2 (≈ 2.66 µM)	–	–	–	–	–	–	–	methicillin-sensitive strains	some bactericidal activity in lower concentrations	low MIC values	more than 500 μg/kg	5	severe acute and chronic salinomycin toxicity	–
Narasin [LP 4525]	–	considerably lower than ampicillin	observed	1	–	–	–	–	–	–	–	methicillin-sensitive strains	some bactericidal activity in lower concentrations	low MIC values	–	–	–	0.25
